Values quoted from earlier work as cited in patent publication US20070065449A1 (priority 2005, published 2007).
pIC50: −log10 of the molar value. Counter-ions that a name gives are not always drawn. Like-named read-outs stand apart in the source and are kept apart here. One block for each compound: values may come before it.

How the values were obtained:
tubulin = settings: read-out: concentration required to provide 50% inhibition of microtubule disassembly (IC50)
soft tissue sarcomas [1] = settings: previously untreated patients; 95% CI 0.1, 29
soft tissue sarcoma [2] = settings: 27 evaluable patients, previously treated with chemotherapy
[3] = in vivo
[4] = not given; remark: listed apart in the source
soft tissue sarcoma [5] = settings: 29 evaluable patients, previously treated with chemotherapy
soft tissue sarcomas [6] = tested on: soft tissue sarcomas
[7] = not given; remark: listed apart in the source
[8] = tested on: advanced soft tissue sarcomas
[9] = tested on: pretreated adult soft tissue sarcoma
[10] = tested on: angiosarcoma of the scalp or face; settings: four partial and four clinical complete responses
[11] = tested on: leiomyosarcoma of the uterus; settings: 48 evaluable patients
[12] = tested on: advanced soft tissue sarcomas; settings: previously untreated advanced soft tissue sarcomas

SMILES: Nc1ccn([C@@H]2O[C@H](CO)[C@@H](O)C2(F)F)c(=O)n1 [Gemcitabine HCl, 2′-deoxy-2′,2′-difluorocytidine monohydrochloride ((beta)-isomer)]
solubility in ethanol and polar organic solvents: practically insoluble
solubility in methanol: slightly soluble
solubility in water: soluble

pIC50 (tubulin): 6.70
storage time of initial diluted solution ([4]; 10 mg docetaxel/ml, refrigerator or room temperature): ≤ 8 h
stability of infusion solution ([4]; stored between 2 and 25° C.): 4 h
SMILES: CC(=O)O[C@@]12CO[C@@H]1C[C@H](O)[C@@]1(C)C(=O)[C@H](O)C3=C(C)[C@@H](OC(=O)[C@H](O)[C@@H](NC(=O)OC(C)(C)C)c4ccccc4)C[C@@](O)([C@@H](OC(=O)c4ccccc4)[C@H]21)C3(C)C [docetaxel]
response rate (soft tissue sarcomas [1]): 5.9%
partial responses (soft tissue sarcoma [2]): 15%
major toxic effect which limits dose [3]: neutropenia
partial responses (soft tissue sarcoma [5]): 17%

SMILES: Nc1ccn([C@@H]2O[C@H](CO)[C@@H](O)C2(F)F)c(=O)n1 [gemcitabine]
objective responses in patients with GIST (soft tissue sarcomas [6]; 17 patients with GIST): no objective responses
median duration of remission (soft tissue sarcomas [6]; in vivo): 3.5 months
remission rate (soft tissue sarcomas [6]; patients with soft tissue sarcomas): 18%
hemolytic uremic syndrome (HUS) ([7]; 6 of 2429 patients): 0.25%
edema ([7]; human, in vivo): 13%
flu syndrome ([7]; human, in vivo): 19%
generalized edema ([7]; human, in vivo): < 1%
overall incidence of fever ([7]; human, in vivo): 41%
peripheral edema ([7]; human, in vivo): 20%
principal dose-limiting toxicity ([7]; human, in vivo): Myelosuppression
rash ([7]; human, in vivo): 30%
nausea and vomiting ([7]; usually mild to moderate severity): 69%
duration of a partial response in a patient ([8]; in vivo): 8 months
rate of remissions ([8]; previously untreated patients, 90% CI 0, 18): 4%
disease stabilization ([9]; 15 assessable patients): 47%
progression-free survival rate at 6 months ([9]; calculated, 95% CI 0, 30.5): 13.3%
progression-free survival rate at 3 months ([9]; calculated, 95% CI 21.4, 71.9): 46.7%
remission rate ([9]; gemcitabine 1.0 g/m^2 days 1, 8, 15 every 4 weeks, 15 assessable patients): 6%
median progression-free survival ([9]; range 1-18+): 3 months

pIC50 (tubulin): 6.40
SMILES: CC(=O)O[C@H]1C(=O)[C@@]2(C)[C@H]([C@H](OC(=O)c3ccccc3)[C@]3(O)C[C@H](OC(=O)[C@H](O)[C@@H](NC(=O)c4ccccc4)c4ccccc4)C(C)=C1C3(C)C)[C@]1(OC(C)=O)CO[C@@H]1C[C@@H]2O [paclitaxel]
patients responding [10]: eight of nine
complete or partial response [11]: 8.4%
stable disease [11]: 22.9%
response rate [12]: 12.5%
